Holding throughout (format): in vivo, human
Experiment [1] has as its system melancholic MDD patients. Briefly: Change of functional connectivities FC #1 and FC #2 (rs-fMRI) through antidepressant treatment.
Source text: Next, contribution to ΔWLS was considered for each functional connectivity in order to consider an influence of SSRI (escitalopram) on each of the 12 pairs of functional connectivities.
Specifically, in preliminary and subsequent analysis of administration, the following numerical expression was used to calculate a contribution score of each functional connectivity.
That is, si represents a difference in average connectivity strength between the healthy control group and the MDD group weighted by the weight of the classifier. […] Further, in Expression 2, FCi^MDD represents reduction (a negative sign through subtraction). […] In other words, the fact that ci becomes negative means that FCi after treatment becomes closer to the corresponding FC of a healthy individual. In contrast, the fact that ci becomes positive means that FCi after treatment becomes closer to the MDD. The numbers of members in the healthy control group and in the MDD group are different from each other, and thus the significant difference between ci and si for each FCi is evaluated by a Welch's t-test. The Welch's t-test is calculated in accordance with the following numerical expression.
In experiment [2] the test system is melancholic MDD patients. Briefly: WLS score (related weighted sum of 12 functional connectivities, rs-fMRI) before and after antidepressant administration. The following applies: 24 remitted melancholic MDD patients, administered for 6 weeks to 8 weeks, FIG. 31c. As for the experimental part: In this manner, a regression expression for classifying a melancholic MDD patient and a healthy individual, namely, a classifier, was created. Further, a related weighted sum (the associated weighted linear sum: WLS) was calculated as an indicator for determining whether each subject has the melancholic MDD or is healthy.
Next, whether an effect of escitalopram, which is a selective serotonin reuptake inhibitor (SSRI), can be evaluated by the WLS score was considered. A smoothed histogram of the WLS score of each of 24 remitted melancholic MDD patients shown in Table 1a, to whom escitalopram was administered for 6 weeks to 8 weeks, is shown in FIG. 31c.

Another experiment has as its system healthy subjects. Briefly: Change of FC #1 and FC #2 (rs-fMRI) on administration of SSRI to healthy subjects. The following applies: 19 healthy subjects, single administration, p=0.033; no difference before (p=0.18). From the text: In a test by two-way analysis of variance, the functional connectivities of FC #1 and FC #2 have a significant temporal interaction through treatment (FC #number x time, F (1,23)=6.70, p=0.016), and a significant difference was not observed for each primary effect. […] In all the diagrams of FIG. 32 and FIG. 33, transition toward the positive direction indicates transition toward the direction of the melancholic MDD, whereas transition toward the negative direction indicates transition toward the direction of the healthy individual. This is because the sign of the weight of the melancholic MDD classifier was multiplied by the FC or the difference in FC. […] Eleven melancholic MDD patients (serotonin-norepinephrine reuptake inhibitor (SNRI) duloxetine was administered for 6 weeks to 8 weeks) gathered in Chiba were considered (FIG. 32c). […] Next, the changes of FC #1 and FC #2 at the time of administration of SSRI to healthy subjects (19 persons) were observed. […] There was no difference before treatment (p=0.18), and a significant relation was […] observed (FIG. 32d).

As for `CNCC[C@H](Oc1cccc2ccccc12)c1cccs1` [duloxetine], the “difference between FC #1 and FC #2 after treatment” value in the experiment with melancholic MDD patients [1] (11 melancholic MDD patients of Chiba, administered for 6 weeks to 8 weeks, paired t-test p=0.10, before treatment n.s. p=0.77) is “difference in trend level”. On to `CN(C)CCC[C@@]1(c2ccc(F)cc2)OCc2cc(C#N)ccc21` [escitalopram], for which the “distribution of the WLS score after administration” value with melancholic MDD patients [2] is “shifted toward the healthy control group”. In addition, the “difference between FC #1 and FC #2 after treatment” value in the experiment with melancholic MDD patients [1] (Hiroshima cohort, corresponding t-test p=0.002, no difference before treatment (p=0.96)) is “significant difference was observed after treatment”. Moreover, the “transition of FC #1 after treatment” value with melancholic MDD patients [1] (Hiroshima cohort, positive direction = direction of melancholic MDD) is “transitioned toward the positive direction”.

For the molecule `Fc1ccc([C@@H]2CCNC[C@H]2COc2ccc3c(c2)OCO3)cc1` [paroxetine], in the experiment with healthy subjects, the “difference between FC #1 and FC #2 after administration” value was “significant difference between FC #1 and FC #2 was observed”.

For the origin of these results see patent publication US12573042B2, “Differentiation device, differentiation method for depression symptoms, determination method for level of depression symptoms, stratification method for depression patients, determination method for effects of treatment of depression symptoms, and brain activity training device” (ADVANCED TELECOMMUNICATIONS RESEARCH INSTITUTE INTERNATIONAL, priority 2017, dated 2026).
